Key:
[1] = system: C4-2 cells; experiment: Determination of specific internalization ratio; type: cell-based
Procedure: (§1) In vitro and in vivo experiments were performed using the PSMA-positive C4-2 cell line, a subline of the LNCaP (lymph node carcinoma of the prostate) cell line (CRL-3314; American Type Culture Collection). C4-2 cells were cultivated in RPMI-1640 (PAN Biotech) supplemented with 10% fetal calf serum and stable glutamine (PAN Biotech). Cells were grown at 37 °C and incubated in humidified air equilibrated with 5% CO2.
For determination of the specific internalization ratio, 24-well plates were incubated for 20 min with 0.1% poly-L-lysine in PBS at room temperature and washed once with PBS. In the next step, 1 ml RPMI containing 1 × 10^5 C4-2 cells was added to each well and incubated overnight. The conditions during the experiment for each compound were: incubation at 37 °C or 4 °C with or without receptor blocking via 2-(phosphonomethyl)pentanedioic acid (2-PMPA; Axxora) at a final concentration of 500 μM. The cells were then incubated with 250 μl of a 30 nM solution of ^203Pb-labelled compound. The plates were incubated either for 45 min in a water bath at 37 °C or on ice at 4 °C. The cells were then washed three times with 1 ml ice-cold PBS and incubated with 0.5 ml glycine (50 mM in HCl, pH 2.8) for 5 min. After an additional washing step with 1 ml ice-cold PBS, the cells were lysed with 0.5 ml 0.3 M NaOH and collected, and the radioactivity was measured with a gamma counter for 1 min. The specific cellular uptake was determined as the percentage of initially added radioactivity bound per 10^6 cells (%IA/10^6 cells) by subtraction of the respective uptake under blocking conditions. All experiments were performed in triplicate.

[2] = target: T1, PSMA (Homo sapiens, UniProt Q04609); experiment: Competitive binding assay on C4-2 cells; conditions: reference ^68Ga-labelled PSMA-HBED-CC dimer (PSMA-10), mean ± SD
T1 construct: host or cells: C4-2 cells (LNCaP subline)
T1 sequence (Q04609 whole entry): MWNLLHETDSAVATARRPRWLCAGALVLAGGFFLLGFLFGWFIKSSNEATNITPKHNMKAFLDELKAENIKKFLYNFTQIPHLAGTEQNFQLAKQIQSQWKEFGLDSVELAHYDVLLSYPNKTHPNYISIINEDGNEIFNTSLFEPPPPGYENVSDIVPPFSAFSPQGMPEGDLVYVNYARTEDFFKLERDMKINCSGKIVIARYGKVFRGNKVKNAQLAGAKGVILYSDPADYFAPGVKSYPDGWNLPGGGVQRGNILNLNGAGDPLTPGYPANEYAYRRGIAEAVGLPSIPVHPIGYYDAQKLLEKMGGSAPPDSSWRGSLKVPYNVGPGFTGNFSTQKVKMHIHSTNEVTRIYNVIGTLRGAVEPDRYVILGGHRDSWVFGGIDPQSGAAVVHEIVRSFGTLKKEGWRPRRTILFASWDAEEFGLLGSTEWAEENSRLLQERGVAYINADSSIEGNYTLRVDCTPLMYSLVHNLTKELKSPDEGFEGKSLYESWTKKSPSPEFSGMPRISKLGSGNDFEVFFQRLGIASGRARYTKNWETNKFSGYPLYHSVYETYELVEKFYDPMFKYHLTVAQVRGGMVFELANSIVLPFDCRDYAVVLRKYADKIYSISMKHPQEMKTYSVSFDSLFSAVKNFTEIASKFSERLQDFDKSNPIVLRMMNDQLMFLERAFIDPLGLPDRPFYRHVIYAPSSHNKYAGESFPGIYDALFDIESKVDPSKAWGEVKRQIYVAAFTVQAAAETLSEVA
Procedure: as §1
A MultiScreenHTS-DV filter plate was incubated at room temperature with 100 μl phosphate-buffered saline (PBS) containing 1% bovine serum albumin (BSA) per well for 30 min. After removal of the PBS/BSA solution, 1 × 10^5 C4-2 cells in Opti-MEM were added to each well. All nonlabelled compounds were dissolved in 300 μl Opti-MEM at the following concentrations: 0, 0.5, 1, 2.5, 5, 10, 25, 50, 100, 500, 1,000 and 5,000 nM. Subsequently, 3 μl of the radiolabelled compound was added, and 50 μl of this mixture was taken to obtain a solution containing 0.75 nM of the radiolabelled ligand. After 45 min incubation at 37 °C, the cells were washed twice with PBS, the radioactivity accumulated in the cells was collected, and the remaining radioactivity was measured in a gamma counter. The inhibitory potency was determined using ^68Ga-labelled PSMA-HBED-CC dimer (i.e. PSMA-10) as the reference. The 50% inhibitory concentration was calculated using a nonlinear regression algorithm (GraphPad Prism 5.01 software). The experiments were performed in quadruplicate.

[3] = system: patients with castration-resistant metastasized prostate cancer; experiment: Dosimetry extrapolated from ^203Pb-CA012 to ^212Pb-CA012
Procedure: Images were loaded into the QDOSE dosimetry software suite (ABX-CRO, Dresden) and coregistered. […] These ROIs were used to determine time–activity curves (TAC) for each organ, tumours and the total body. The first time-point (before voiding) of the uncorrected geometric mean images was used to calibrate the ROI counts in relation to the injected activity. The red marrow TAC was calculated from venous blood (six samples per patient) using established model assumptions [10, 11].
Biexponential curve fitting was applied to all organ TACs (with the exception of a few tumours and glands which had to be fitted monoexponentially). The accumulated activity was integrated assuming a linear increase from time 0 to the first measured time-point, numerically from the first to the last measured time-point using trapezoidal approximations and from the last measured time-point to infinity using the fit function. The activity in the remainder of the body was calculated by subtracting the activity of all source organs from that of the total body.
The residence times in the kidneys, liver, spleen, urinary bladder contents, red marrow and remainder of the body were exported for dose calculations in OLINDA 1.1, using the organ masses of the adult phantom [12].
OLINDA calculations were performed for all nuclides individually. […] Tumour and salivary gland volumes were measured individually based on CT segmentation and their absorbed doses were approximated using a power function interpolating the spherical model estimates [15].

[4] = ^203Pb-labelled compound 30 nM, 45 min, 2-PMPA blocking subtracted, mean ± SD n = 3
[5] = projected from therapeutic activity of 100 MBq
[6] = therapeutic ^212Pb incl. daughter nuclides, extrapolated from ^203Pb, RBE 5 for alpha, OLINDA male adult phantom

**Q.** For NC(=O)CN1CCN(CC(N)=O)CCN(CC(N)=O)C(Cc2ccc(NC(=S)NCC3CCC(C(=O)NC(Cc4ccc5ccccc5c4)C(=O)NCCCC[C@H](NC(=O)N[C@@H](CCC(=O)O)C(=O)O)C(=O)O)CC3)cc2)CN(CC(N)=O)CC1 (stereo partly drawn) [CA009], which specific ligand-induced internalization [1] is on record?
**A.** Its specific ligand-induced internalization is 27.4 ± 2.4 %IA/10^6 cells.

**Q.** And the Specific cell surface [1, 4]?
**A.** Its Specific cell surface is 106.5 ± 2.8 %IA/10^6 cells.

**Q.** What about the “Specific lysate (specific internalization)” value [1, 4] of the same molecule?
**A.** The value was 27.4 ± 2.4 %IA/10^6 cells.

**Q.** What about the Ki [2] of the same molecule?
**A.** The Ki was 15.3 ± 3.1 nM.

**Q.** Which results are given for NC(=O)CN1CCN(CC(N)=O)CCN(CC(=O)NC[C@H]2CC[C@H](C(=O)N[C@@H](Cc3ccc4ccccc4c3)C(=O)NCCCC[C@H](NC(=O)N[C@@H](CCC(=O)O)C(=O)O)C(=O)O)CC2)CCN(CC(N)=O)CC1.[212Pb+2] [^212Pb-CA012]?
**A.** cumulative dose limited by the kidneys (dose-limiting organ) ([3]; preliminary approximation): 400–600 MBq; Equivalent dose, Liver [3, 5]: 0.7 SvRBE5; Equivalent dose, other organs [3, 5]: 0.2 SvRBE5; Tissue equivalent dose, Kidneys [3, 5]: 4.9 SvRBE5; Tissue equivalent dose, Red marrow ([3]; projected from therapeutic activity of 100 MBq, instant decay of daughter nuclides assumed): 0.6 SvRBE5; Effective dose [3, 6]: 415.1 mSv RBE5/100 Mbq; Effective dose equivalent [3, 6]: 748.9 mSv RBE5/100 Mbq; Equivalent dose, Adrenals [3, 6]: 193.1 mSv RBE5/100 Mbq; Equivalent dose, Brain [3, 6]: 190.0 mSv RBE5/100 Mbq; Equivalent dose, Breasts [3, 6]: 190.0 mSv RBE5/100 Mbq; Equivalent dose, Gallbladder [3, 6]: 192.9 mSv RBE5/100 Mbq; Equivalent dose, Heart [3, 6]: 191.3 mSv RBE5/100 Mbq; Equivalent dose, Kidneys [3, 6]: 4906.6 mSv RBE5/100 Mbq; Equivalent dose, Liver [3, 6]: 703.3 mSv RBE5/100 Mbq; Equivalent dose, Lower large intestine [3, 6]: 191.3 mSv RBE5/100 Mbq; Equivalent dose, Lungs [3, 6]: 190.9 mSv RBE5/100 Mbq; Equivalent dose, Muscle [3, 6]: 190.7 mSv RBE5/100 Mbq; Equivalent dose, Osteogenic cells [3, 6]: 3796.4 mSv RBE5/100 Mbq; Equivalent dose, Pancreas [3, 6]: 192.9 mSv RBE5/100 Mbq; Equivalent dose, Red marrow [3, 6]: 615.1 mSv RBE5/100 Mbq; Equivalent dose, Skin [3, 6]: 189.8 mSv RBE5/100 Mbq; Equivalent dose, Small intestine [3, 6]: 191.8 mSv RBE5/100 Mbq; Equivalent dose, Spleen [3, 6]: 1606.7 mSv RBE5/100 Mbq; Equivalent dose, Stomach [3, 6]: 191.8 mSv RBE5/100 Mbq; Equivalent dose, Testes [3, 6]: 190.4 mSv RBE5/100 Mbq; Equivalent dose, Thymus [3, 6]: 190.7 mSv RBE5/100 Mbq; Equivalent dose, Thyroid [3, 6]: 190.5 mSv RBE5/100 Mbq; Equivalent dose, Total body [3, 6]: 237.8 mSv RBE5/100 Mbq; Equivalent dose, Upper large intestine [3, 6]: 191.8 mSv RBE5/100 Mbq; Equivalent dose, Urinary bladder [3, 6]: 200.2 mSv RBE5/100 Mbq

**Q.** With NC(=O)CN1CCN(CC(N)=O)CCN(CC(N)=O)C(Cc2ccc(NC(=S)NCC3CCC(C(=O)NC(Cc4ccc5ccccc5c4)C(=O)NCCCC[C@H](NC(=O)N[C@@H](CCC(=O)O)C(=O)O)C(=O)O)CC3)cc2)CN(CC(N)=O)CC1.[203Pb+2] (stereo partly drawn) [^203Pb-CA009] as the molecule, how does the specific ligand-induced internalization [1] read?
**A.** Its specific ligand-induced internalization is “approximately 27 %ID/10^6 cells”.

**Q.** And the “Specific lysate (specific internalization)” value [1, 4]?
**A.** Its value is 27.4 ± 2.4 %IA/10^6 cells.
